From ChEMBL document CHEMBL5344477, “Discovery of benzoheterocyclic-substituted amide derivatives as apoptosis signal-regulating kinase 1 (ASK1) inhibitors” (RSC Med Chem, 2024)

Key:
[1] = Apparent […] clearance in Sprague-Dawley rat at 1 mg/kg, iv measured upto 24 hrs by LC-MS/MS analysis; assay type: ADME, organism-based; settings: in vivo
[2] = Metabolic stability in rat liver microsomes assessed as clearance at 1 uM measured upto 90 mins by LC-MS/MS analysis; assay type: ADME, Microsome; settings: read-out: CLH
[3] = Volume of distribution at steady state in Sprague-Dawley rat at 1 mg/kg, iv measured upto 24 hrs by LC-MS/MS analysis; assay type: ADME, organism-based; settings: in vivo, read-out: Vdss
[4] = Cmax in Sprague-Dawley rat at 5 mg/kg, po measured upto 24 hrs by LC-MS/MS analysis; assay type: ADME, organism-based; design: dose 5 mg/kg, time < 24 hrs, route po; settings: in vivo
[5] = Half life in Sprague-Dawley rat at 1 mg/kg, iv measured upto 24 hrs by LC-MS/MS analysis; assay type: ADME, organism-based; settings: in vivo
[6] = Metabolic stability in human liver microsomes assessed as clearance at 1 uM measured upto 90 mins by LC-MS/MS analysis; assay type: ADME, Microsome; settings: read-out: CLH
[7] = Metabolic stability in rat liver microsomes assessed as half life at 1 uM measured upto 90 mins by LC-MS/MS analysis; assay type: ADME, Microsome
[8] = AUClast in Sprague-Dawley rat at 5 mg/kg, po measured upto 24 hrs by LC-MS/MS analysis; assay type: ADME, organism-based; design: dose 5 mg/kg, time < 24 hrs, route po; settings: in vivo
[9] = AUClast in Sprague-Dawley rat at 1 mg/kg, iv measured upto 24 hrs by LC-MS/MS analysis; assay type: ADME, organism-based; design: dose 1 mg/kg, time < 24 hrs, route iv; settings: in vivo
[10] = Oral bioavailability in Sprague-Dawley rat at 5 mg/kg measured upto 24 hrs by LC-MS/MS analysis; assay type: ADME, organism-based; settings: in vivo
[11] = Half life in Sprague-Dawley rat at 5 mg/kg, po measured upto 24 hrs by LC-MS/MS analysis; assay type: ADME, organism-based; settings: in vivo
[12] = Metabolic stability in human liver microsomes assessed as half life at 1 uM measured upto 90 mins by LC-MS/MS analysis; assay type: ADME, Microsome
[13] = Cmax in Sprague-Dawley rat at 1 mg/kg, iv measured upto 24 hrs by LC-MS/MS analysis; assay type: ADME, organism-based; design: dose 1 mg/kg, time < 24 hrs, route iv; settings: in vivo
[14] = Half life in Sprague-Dawley rat at 2.5 mg/kg, po measured upto 24 hrs by LC-MS/MS analysis; assay type: ADME, organism-based; settings: in vivo
[15] = AUClast in Sprague-Dawley rat at 0.5 mg/kg, iv measured upto 24 hrs by LC-MS/MS analysis; assay type: ADME, organism-based; design: time < 24 hrs, dose 0.5 mg/kg, route iv; settings: in vivo
[16] = Volume of distribution at steady state in Sprague-Dawley rat at 0.5 mg/kg, iv measured upto 24 hrs by LC-MS/MS analysis; assay type: ADME, organism-based; settings: in vivo, read-out: Vdss
[17] = Cmax in Sprague-Dawley rat at 0.5 mg/kg, iv measured upto 24 hrs by LC-MS/MS analysis; assay type: ADME, organism-based; design: time < 24 hrs, dose 0.5 mg/kg, route iv; settings: in vivo
[18] = Cmax in Sprague-Dawley rat at 2.5 mg/kg, po measured upto 24 hrs by LC-MS/MS analysis; assay type: ADME, organism-based; design: dose 2.5 mg/kg, time < 24 hrs, route po; settings: in vivo
[19] = Apparent […] clearance in Sprague-Dawley rat at 0.5 mg/kg, iv measured upto 24 hrs by LC-MS/MS analysis; assay type: ADME, organism-based; settings: in vivo
[20] = Half life in Sprague-Dawley rat at 0.5 mg/kg, iv measured upto 24 hrs by LC-MS/MS analysis; assay type: ADME, organism-based; settings: in vivo
[21] = AUClast in Sprague-Dawley rat at 2.5 mg/kg, po measured upto 24 hrs by LC-MS/MS analysis; assay type: ADME, organism-based; design: dose 2.5 mg/kg, time < 24 hrs, route po; settings: in vivo
[22] = Oral bioavailability in Sprague-Dawley rat at 2.5 mg/kg measured upto 24 hrs by LC-MS/MS analysis; assay type: ADME, organism-based; settings: in vivo

O=C1CCCc2cc(F)c(C(=O)Nc3cccc(-c4nncn4C4CC4)n3)cc2N1
CL/F [1]: 14.2 mL/min/kg | CLint scaled at 1 µM [2]: 4.7 mL/min/kg | Vd [3]: 0.7 L/kg | Cmax [4]: 829 ng/mL | half-life [5]: 0.71 h | CLint scaled at 1 µM [6]: 2.4 mL/min/kg | half-life at 1 µM [7]: 8.87 h | AUC(0-t) at 24 h [8]: 2720 ng·h/mL | AUC(0-t) at 24 h [9]: 1170 ng·h/mL | bioavailability [10]: 47% | half-life [11]: 3.82 h | half-life at 1 µM [12]: 11.9 h | Cmax [13]: 1220 ng/mL

CC(C)n1cnnc1-c1cccc(NC(=O)c2cc3c(cc2F)C(C)(C)CC(=O)N3C)n1
CL/F [1]: 20.8 mL/min/kg | CLint scaled at 1 µM [2]: 25.3 mL/min/kg | Vd [3]: 1.82 L/kg | Cmax [4]: 550 ng/mL | half-life [5]: 1.12 h | CLint scaled at 1 µM [6]: 10.7 mL/min/kg | half-life at 1 µM [7]: 1.64 h | AUC(0-t) at 24 h [8]: 3180 ng·h/mL | AUC(0-t) at 24 h [9]: 789 ng·h/mL | bioavailability [10]: 89.1% | half-life [11]: 5.02 h | half-life at 1 µM [12]: 2.71 h | Cmax [13]: 418 ng/mL

CC(C)n1cnnc1-c1cccc(NC(=O)c2cc3c(cc2F)OC(C)(C)C(=O)N3C)n1
half-life [14]: 1.3 h | AUC(0-t) at 24 h [15]: 218 ng·h/mL | Vd [16]: 1.88 L/kg | Cmax [17]: 239 ng/mL | CLint scaled at 1 µM [2]: 27.3 mL/min/kg | Cmax [18]: 417 ng/mL | CL/F [19]: 38 mL/min/kg | half-life [20]: 0.71 h | AUC(0-t) at 24 h [21]: 767 ng·h/mL | CLint scaled at 1 µM [6]: 5.5 mL/min/kg | half-life at 1 µM [7]: 1.52 h | bioavailability [22]: 72.2% | half-life at 1 µM [12]: 5.26 h

CC(C)n1cnnc1-c1cccc(NC(=O)c2cc3c(cc2F)OC(C)(C)C(=O)N3)n1
half-life [14]: 1.39 h | AUC(0-t) at 24 h [15]: 276 ng·h/mL | Vd [16]: 1.35 L/kg | Cmax [17]: 350 ng/mL | Cmax [18]: 554 ng/mL | CL/F [19]: 30 mL/min/kg | half-life [20]: 0.74 h | AUC(0-t) at 24 h [21]: 1260 ng·h/mL | bioavailability [22]: 95%

CC(C)n1cnnc1-c1cccc(NC(=O)c2cc3c(cc2F)CCCC(=O)N3)c1
CL/F [1]: 52 mL/min/kg | CLint scaled at 1 µM [2]: 6.2 mL/min/kg | Vd [3]: 2.19 L/kg | Cmax [4]: 109 ng/mL | half-life [5]: 0.72 h | CLint scaled at 1 µM [6]: 3.5 mL/min/kg | half-life at 1 µM [7]: 6.69 h | AUC(0-t) at 24 h [8]: 252 ng·h/mL | AUC(0-t) at 24 h [9]: 320 ng·h/mL | bioavailability [10]: 16% | half-life [11]: 1.84 h | half-life at 1 µM [12]: 8.31 h | Cmax [13]: 420 ng/mL

CC(C)n1cnnc1-c1cccc(NC(=O)c2cc3c(cc2F)CCC(=O)N3C)n1
CL/F [1]: 24.8 mL/min/kg | CLint scaled at 1 µM [2]: 34.3 mL/min/kg | Vd [3]: 1.32 L/kg | Cmax [4]: 964 ng/mL | half-life [5]: 0.86 h | CLint scaled at 1 µM [6]: 7.3 mL/min/kg | half-life at 1 µM [7]: 1.2 h | AUC(0-t) at 24 h [8]: 2660 ng·h/mL | AUC(0-t) at 24 h [9]: 668 ng·h/mL | bioavailability [10]: 80.7% | half-life [11]: 1.13 h | half-life at 1 µM [12]: 3.95 h | Cmax [13]: 594 ng/mL

CC(C)n1cnnc1-c1cccc(NC(=O)c2cc3c(cc2F)CCCC(=O)N3)n1
CL/F [1]: 12.8 mL/min/kg | CLint scaled at 1 µM [2]: 6.6 mL/min/kg | Vd [3]: 1.07 L/kg | Cmax [4]: 1270 ng/mL | half-life [5]: 1.24 h | CLint scaled at 1 µM [6]: 3.3 mL/min/kg | half-life at 1 µM [7]: 6.24 h | AUC(0-t) at 24 h [8]: 4830 ng·h/mL | AUC(0-t) at 24 h [9]: 1270 ng·h/mL | bioavailability [10]: 77.7% | half-life [11]: 1.63 h | half-life at 1 µM [12]: 8.8 h | Cmax [13]: 1070 ng/mL

CC(CO)n1cnnc1-c1cccc(NC(=O)c2cc3c(cc2F)CCCC(=O)N3C)n1 (configuration not stated)
CL/F [1]: 76.7 mL/min/kg | CLint scaled at 1 µM [2]: 14 mL/min/kg | Vd [3]: 2.36 L/kg | Cmax [4]: 28 ng/mL | half-life [5]: 0.63 h | CLint scaled at 1 µM [6]: 8.5 mL/min/kg | half-life at 1 µM [7]: 2.96 h | AUC(0-t) at 24 h [8]: 61 ng·h/mL | AUC(0-t) at 24 h [9]: 216 ng·h/mL | bioavailability [10]: 5.9% | half-life [11]: 1.51 h | half-life at 1 µM [12]: 3.41 h | Cmax [13]: 440 ng/mL

CN1C(=O)CCCc2cc(F)c(C(=O)Nc3cccc(-c4nncn4C4CC4)n3)cc21
CL/F [1]: 12.2 mL/min/kg | CLint scaled at 1 µM [2]: 13.2 mL/min/kg | Vd [3]: 1.14 L/kg | Cmax [4]: 1850 ng/mL | half-life [5]: 1.22 h | CLint scaled at 1 µM [6]: 11.1 mL/min/kg | half-life at 1 µM [7]: 3.15 h | AUC(0-t) at 24 h [8]: 7530 ng·h/mL | AUC(0-t) at 24 h [9]: 1340 ng·h/mL | bioavailability [10]: 121% | half-life [11]: 1.97 h | half-life at 1 µM [12]: 2.6 h | Cmax [13]: 799 ng/mL

O=C1CCc2cc(F)c(C(=O)Nc3cccc(-c4nncn4C4CC4)n3)cc2N1
half-life [14]: 2 h | AUC(0-t) at 24 h [15]: 469 ng·h/mL | Vd [16]: 0.96 L/kg | Cmax [17]: 447 ng/mL | CLint scaled at 1 µM [2]: 10.2 mL/min/kg | Cmax [18]: 345 ng/mL | CL/F [19]: 17.7 mL/min/kg | half-life [20]: 0.72 h | AUC(0-t) at 24 h [21]: 1330 ng·h/mL | CLint scaled at 1 µM [6]: 3.8 mL/min/kg | half-life at 1 µM [7]: 4.07 h | bioavailability [22]: 57.4% | half-life at 1 µM [12]: 7.54 h

CC(C)n1cnnc1-c1cccc(NC(=O)c2cc3c(cc2F)CCCC(=O)N3C)c1
CL/F [1]: 36.8 mL/min/kg | CLint scaled at 1 µM [2]: 10.4 mL/min/kg | Vd [3]: 1.44 L/kg | Cmax [4]: 341 ng/mL | half-life [5]: 0.8 h | CLint scaled at 1 µM [6]: 7.8 mL/min/kg | half-life at 1 µM [7]: 3.97 h | AUC(0-t) at 24 h [8]: 712 ng·h/mL | AUC(0-t) at 24 h [9]: 449 ng·h/mL | bioavailability [10]: 33.2% | half-life [11]: 1.44 h | half-life at 1 µM [12]: 3.72 h | Cmax [13]: 758 ng/mL

O=C1COc2cc(F)c(C(=O)Nc3cccc(-c4nncn4C4CC4)n3)cc2N1
half-life [14]: 2.07 h | AUC(0-t) at 24 h [15]: 592 ng·h/mL | Vd [16]: 1.07 L/kg | Cmax [17]: 489 ng/mL | CLint scaled at 1 µM [2]: 10.2 mL/min/kg | Cmax [18]: 832 ng/mL | CL/F [19]: 14 mL/min/kg | half-life [20]: 0.97 h | AUC(0-t) at 24 h [21]: 2390 ng·h/mL | CLint scaled at 1 µM [6]: 4 mL/min/kg | half-life at 1 µM [7]: 4.08 h | bioavailability [22]: 83.6% | half-life at 1 µM [12]: 7.24 h
